According to patent US20240300972A1, “THIOPHENE-BASED LIPIDS” (Oregon State University, priority 2021, published 2024):

Assays:
BALB/c mice = experiment: In vivo bioluminescence imaging after administration of Fluc mRNA nanoparticle formulations; design: species or system mouse; details: for transfection after intramuscular administration: flanks of mice; for luminescent signals detected by in vivo imaging / pattern / origin of luminescence (transfected tissues) / degree of transfection (light flux) in the tested series: intravenous administration; for luminescent signals detected by in vivo imaging / degree of transfection (light flux) in the tested series: mice; for pattern / origin of luminescence (transfected tissues): in vivo and ex vivo organs; for light flux compared to the negative control: normal (50:10:38.5:1.5) and highly PEGylated (50:7:38.5:4.5) formulations
Experimental: A nanoparticle formulation including firefly luciferase (Fluc) mRNA was administered to BALB/c mice by intravenous, intramuscular, intravitreal, or subretinal injection. The intravenous injection was performed by tail-vein or retro-orbital injection. Mice that received a dose of nanoparticle formulation were housed until bioluminescence imaging. Bioluminescence imaging is a method to quantify luminescent signals from the subject. Prior to bioluminescence imaging, the mice were sedated with inhalation of isoflurane. The sedated mice received a dose of D-luciferin salt, which is a substrate of firefly luciferase, by intraperitoneal injection at 150 mg/kg 10 minutes prior to bioluminescence imaging. Bioluminescence imaging was performed on the mice with various exposure times ranging from 1 to 300 seconds using IVIS Lumina XRMS from PerkinElmer. To evaluate the protein expression at an organ level, internal organs of a mouse, such as the liver, lungs, kidneys, spleen, lymph nodes, and heart, and external tissues of mouse, such as muscle tissues close to a site of injection, were excised.

[1] = system: HeLa (human cervical epithelial cells); experiment: In vitro transfection efficiency of FLuc mRNA LNPs, ONE-Glo Luciferase Assay; type: cell-based; details: for dose response of transfection efficiency: 50 vs 200 ng/well; for transfection profile and cytotoxicity: compared to negative control (PBS) and positive control (MC3 LNPs at the same dose)
Experimental: (§1) Mammalian cell lines used to measure cytotoxicity and transfection efficiency include HeLa (human cervical epithelial cells), HEK293T/17 (human embryonic kidney cells), HepG2 (human liver epithelial-like cells), and Jurkat E6-1 (human T-lymphocytes). The cells were seeded at 4000 cells/well in a 96-well plate and incubated for 24 hours. The next day, the LNPs of interest were diluted with 1×PBS to 50 ng/ul and administered at predetermined doses to the cells. The cell viability and transfection efficiency were evaluated on the following day (after 24-hour incubation of cells with LNPs). The cell viability was measured with Promega CellTiter-Fluor Cell Viability Assay, and the transfection efficiency was measured with Promega ONE-Glo Luciferase Assay System using Tecan Infinite M200 PRO multimode plate reader instrument. The dose range varied from 50 to 200 ng of nucleic acid per well.

[2] = system: HEK293T/17 (human embryonic kidney cells); experiment: as above; type: cell-based; details: HEK293T/17, 200 ng (identical dose)
Experimental: as §1

[3] = system: HepG2 (human liver epithelial-like cells); experiment: as above; type: cell-based; details: HepG2, 200 ng (identical dose)
Experimental: as §1

| Compound | transfection after intramuscular administration (BALB/c mice) | luminescent signals detected by in vivo imaging (BALB/c mice) | pattern / origin of luminescence (transfected tissues) (BALB/c mice) | light flux compared to the negative control (BALB/c mice; subretinal administration) | dose response of transfection efficiency ([1]; HeLa) | decline compared to the positive control [2] [fold] | decline compared to the positive control [3] [fold] | improvement compared to the positive control ([1]; HeLa cell line, 200 ng treatment) [fold] | transfection profile and cytotoxicity ([1]; HeLa) | luciferase signal (BALB/c mice; subretinal administration, “normal” formulation (1.5% PEG)) | degree of transfection (light flux) in the tested series (BALB/c mice) | decrease in transfection efficiency vs positive control ([1]; HeLa, MC3 LNPs at the same dose) |
| --- | --- | --- | --- | --- | --- | --- | --- | --- | --- | --- | --- | --- |
| 6-(3-(dimethylamino)propanoyl)-2-((9Z,12Z)-octadeca-9,12-dienamido)-N-((9Z,12Z)-octadeca-9,12-dienoyl)-N-octadecyl-4,5,6,7-tetrahydrothieno[2,3-c]pyridine-3- [26a] | successful and comparable transfection of local tissues | successful transfection | local transfection | greater significant light flux | greater at 200 ng/well than at 50 ng/well | – | – | – | – | – | – | – |
| CCCCC/C=C\C/C=C\CCCCCCCC(=O)N(C(=O)CCCCCCC/C=C\C/C=C\CCCCC)c1sc2c(c1C(=O)OCC)CCN(C(=O)CCCN(C)C)C2 [19da, ethyl 6-(4-(dimethylamino)butanoyl)-2-((9Z,12Z)—N-((9Z,12Z)-octadeca-9,12-dienoyl)octadeca-9,12-dienamido)-4,5,6,7-tetrahydrothieno[2,3-c]pyridine-3-carboxylate] | successful and comparable transfection of local tissues | successful transfection | local transfection | greater significant light flux | greater at 200 ng/well than at 50 ng/well | 3 | 3 | ~5 | favorable transfection profile and cytotoxicity | – | – | – |
| CCCCC/C=C\C/C=C\CCCCCCCC(=O)Nc1sc2c(c1C(=O)N(CCCCCCCCCCCCCCCCCC)C(=O)CCCCCCC/C=C\C/C=C\CCCCC)CCN(C(=O)CCCN(C)C)C2 [26b, 6-(4-(dimethylamino)butanoyl)-2-((9Z,12Z)-octadeca-9,12-dienamido)-N-((9Z,12Z)-octadeca-9,12-dienoyl)-N-octadecyl-4,5,6,7-tetrahydrothieno[2,3-c]pyridine-3-carboxamide] | – | successful transfection | local transfection | greater significant light flux | greater at 200 ng/well than at 50 ng/well | – | – | – | favorable transfection profile and cytotoxicity | not detected | – | – |
| CCCCC/C=C\C/C=C\CCCCCCCC(=O)Nc1sc2c(c1C(=O)NCCCN(C)C)CCN(C(=O)CCCCCCC/C=C\C/C=C\CCCCC)C2 [29d, N-(3-(dimethylamino)propyl)-2-((9Z,12Z)-octadeca-9,12-dienamido)-6-((9Z,12Z)-octadeca-9,12-dienoyl)-4,5,6,7-tetrahydrothieno[2,3-c]pyridine-3-carboxamide] | – | successful transfection | spleen and lungs | – | inverse dose response | – | – | – | favorable transfection profile and cytotoxicity | – | – | – |
| CCCCC/C=C\C/C=C\CCCCCCCCOC(=O)c1c(NC(=O)CCCCCCCCCCCCCCCCC)sc2c1CCNC2 [34a, (9Z,12Z)-octadeca-9,12-dien-1-yl 2-stearamido-4,5,6,7-tetrahydrothieno[2,3-c]pyridine-3-carboxylate] | – | successful transfection | liver and spleen | – | – | – | – | – | favorable transfection profile and cytotoxicity | – | highest light flux | – |
| CCCCC/C=C\C/C=C\CCCCCCCCOC(=O)c1c(NC(=O)CCCCCCC/C=C\C/C=C\CCCCC)sc2c1CCNC2 [34b, (9Z,12Z)-octadeca-9,12-dien-1-yl 2-((9Z,12Z)-octadeca-9,12-dienamido)-4,5,6,7-tetrahydrothieno[2,3-c]pyridine-3-carboxylate] | – | successful transfection | – | – | – | – | – | – | favorable transfection profile and cytotoxicity | – | highest light flux | – |
| CCCCC/C=C\C/C=C\CCCCCCCCOC(=O)c1c(NC(=O)CCCCCCC/C=C\C/C=C\CCCCC)sc2c1CCN(C(=O)CCCN(C)C)C2 [35a, (9Z,12Z)-octadeca-9,12-dien-1-yl 6-(4-(dimethylamino)butanoyl)-2-((9Z,12Z)-octadeca-9,12-dienamido)-4,5,6,7-tetrahydrothieno[2,3-c]pyridine-3-carboxylate] | – | successful transfection | – | – | – | – | – | – | favorable transfection profile and cytotoxicity | – | – | up to 4 ×fold |
